Measurements as given in ChEMBL document CHEMBL1145757, “QSAR study on solubility of alkanes in water and their partition coefficients in different solvent systems using PI index” (Bioorg Med Chem Lett, 2003).
In brackets after ≈: the same amount, converted by molar mass.

What was measured:
physchem [1] = assay: physchem
Description: Solubility in water was determined; values expressed as -log

physchem [2] = conditions: octanol/water
Description: Partition coefficient (logP)

[3] = Partition coefficient in water-cyclohexane was determined; assay type: ADME
[4] = octanol/water
Description: Partition coefficient (logP)

[5] = water/hexadecane
Description: Partition coefficient in water-hexadecane (P16) was determined

[6] = water/alkane
Description: Partition coefficient in alkanes was determined

Structure (SMILES) | solubility (physchem [1]; water) [µM] | logP (physchem [2]) | Log Pcyc [3] | logP [4] | solubility (physchem [1]; buffer) [µM] | Log P16 [5] | Log Palk [6]
CCCCCCCCCCCCCC | 0.011 (≈ 0.00218 µg/mL) | 8 |  |  |  |  | 
CCCC [BUTANE] |  |  | 3.62 | 2.89 | 2690 (≈ 156 µg/mL) |  | 
CCCCCCCCCC [DECANE] | 0.105 (≈ 0.0149 µg/mL) | 6.34 |  |  |  | 7.01 | 
CCCCCCCCCCCC [DODECANE] |  |  |  |  | 0.0214 (≈ 0.00364 µg/mL) |  | 
CCCCCCC [HEPTANE] | 29.5 (≈ 2.96 µg/mL) | 4.5 |  |  |  | 5.14 | 
CCCCCCCCCCCCCCCC [HEXADECANE] | 0.00398 (≈ 0.000902 µg/mL) |  |  | 9.57 |  |  | 
CCCCCC [HEXANE] |  |  |  | 3.9 | 145 (≈ 12.5 µg/mL) |  | 
C [METHANE] |  |  | 1.33 |  |  | 1.14 | 1.37
CCCCCCCCC [NONANE] |  | 5.65 |  |  | 1.32 (≈ 0.169 µg/mL) | 6.49 | 
CCCCCCCC [OCTANE] | 5.75 (≈ 0.657 µg/mL) | 5.15 |  |  |  | 5.79 | 
CCCCC [PENTANE] | 661 (≈ 47.7 µg/mL) |  | 4.27 |  |  | 3.87 | 4.06
